Data from PubChem BioAssay AID1963965 (Molecular Pharmacology Branch, DTP, NCI, 2024).
pIC50: −log10 of the molar value. Each block holds one compound with its values, some of them ahead of it.

Test system: 996289-038-R-J1-PDC spheroid viability
Assay: Anticancer human tumor 996289-038-R-J1-PDC patient-derived colon adenocarcinoma cell line growth inhibition [PI3K]
Details: spheroids with HUVEC and MSC; for pIC50: curve of first compound; for viability, T/C: stronger effect = lower value
How it was run: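 Viability of mixed-cell spheroids was determined after exposure to pairwise combinations, one partner being inavolisib, alpelisib, duvelisib or copanlisib. Highest tested concentration matched clinical Cmax where known and 10 microM where not, descending in half-log steps.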

[1] = second compound 0.0316 µM, first compound 0.0316 µM
[2] = second compound 0.0316 µM, first compound 0.1 µM
[3] = second compound 0.0316 µM, first compound 0.316 µM
[4] = second compound 0.0316 µM, first compound 1 µM
[5] = second compound 0.1 µM, first compound 0.0316 µM
[6] = second compound 0.1 µM, first compound 0.1 µM
[7] = second compound 0.1 µM, first compound 0.316 µM
[8] = second compound 0.1 µM, first compound 1 µM
[9] = second compound 0.316 µM, first compound 0.0316 µM
[10] = second compound 0.316 µM, first compound 0.1 µM
[11] = second compound 0.316 µM, first compound 0.316 µM
[12] = second compound 0.316 µM, first compound 1 µM
[13] = second compound 1 µM, first compound 0.0316 µM
[14] = second compound 1 µM, first compound 0.1 µM
[15] = second compound 1 µM, first compound 0.316 µM
[16] = second compound 1 µM, first compound 1 µM
[17] = second compound 3.16 µM, first compound 0.0316 µM
[18] = second compound 3.16 µM, first compound 0.1 µM
[19] = second compound 3.16 µM, first compound 0.316 µM
[20] = second compound 3.16 µM, first compound 1 µM
[21] = second compound 10 µM, first compound 0.0316 µM
[22] = second compound 10 µM, first compound 0.1 µM
[23] = second compound 10 µM, first compound 0.316 µM
[24] = second compound 10 µM, first compound 1 µM
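Also: spheroids exposed to compounds for seven days before viability read.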
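For viability, T/C in this document: luminescence used as a proxy for viable cell amount; percent viability relative to DMSO vehicle control as 100%.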

- pIC50 (second compound 0.0316 µM): < 5.00
- pIC50 (second compound 0.1 µM): < 5.00
- pIC50 (second compound 0.316 µM): < 5.00
- pIC50 (second compound 1 µM): < 5.00
- pIC50 (second compound 3.16 µM): 5.30
- pIC50 (second compound 10 µM): > 7.50
SMILES: CC(C)NCC(C(=O)N1CCN(c2ncnc3c2C(C)CC3O)CC1)c1ccc(Cl)cc1 (centres undefined) + Cc1nc(NC(=O)N2CCCC2C(N)=O)sc1-c1ccnc(C(C)(C)C(F)(F)F)c1
- viability, T/C [1]: 82.8%
- viability, T/C [2]: 92.3%
- viability, T/C [3]: 85.9%
- viability, T/C [4]: 97.7%
- viability, T/C (second compound 0.0316 µM, first compound 3.16 µM): 85.2%
- viability, T/C (second compound 0.0316 µM, first compound 10 µM): 66.7%
- viability, T/C [5]: 82.4%
- viability, T/C [6]: 81%
- viability, T/C [7]: 97.9%
- viability, T/C [8]: 82.1%
- viability, T/C (second compound 0.1 µM, first compound 3.16 µM): 82.1%
- viability, T/C (second compound 0.1 µM, first compound 10 µM): 66.2%
- viability, T/C [9]: 76.5%
- viability, T/C [10]: 88.8%
- viability, T/C [11]: 81.7%
- viability, T/C [12]: 69.2%
- viability, T/C (second compound 0.316 µM, first compound 3.16 µM): 78.4%
- viability, T/C (second compound 0.316 µM, first compound 10 µM): 54.5%
- viability, T/C [13]: 68.7%
- viability, T/C [14]: 60.7%
- viability, T/C [15]: 67.8%
- viability, T/C [16]: 69.5%
- viability, T/C (second compound 1 µM, first compound 3.16 µM): 59.5%
- viability, T/C (second compound 1 µM, first compound 10 µM): 51%
- viability, T/C [17]: 61%
- viability, T/C [18]: 60%
- viability, T/C [19]: 60.7%
- viability, T/C [20]: 59.1%
- viability, T/C (second compound 3.16 µM, first compound 3.16 µM): 57%
- viability, T/C (second compound 3.16 µM, first compound 10 µM): 40.1%
- viability, T/C [21]: 45.7%
- viability, T/C [22]: 35.9%
- viability, T/C [23]: 43.5%
- viability, T/C [24]: 45.9%
- viability, T/C (second compound 10 µM, first compound 3.16 µM): 34.3%
- viability, T/C (second compound 10 µM, first compound 10 µM): 28.2%

- pIC50 (second compound 0.0316 µM): < 6.00
- pIC50 (second compound 0.1 µM): < 6.00
- pIC50 (second compound 0.316 µM): < 6.00
- pIC50 (second compound 1 µM): < 6.00
- pIC50 (second compound 3.16 µM): 7.42
- pIC50 (second compound 10 µM): > 8.50
SMILES: CCN1CCN(Cc2ccc(Nc3ncc(F)c(-c4cc(F)c5nc(C)n(C(C)C)c5c4)n3)nc2)CC1 + Cc1nc(NC(=O)N2CCCC2C(N)=O)sc1-c1ccnc(C(C)(C)C(F)(F)F)c1
- viability, T/C (second compound 0.0316 µM, first compound 0.00316 µM): 84.2%
- viability, T/C (second compound 0.0316 µM, first compound 0.01 µM): 72%
- viability, T/C [1]: 83.4%
- viability, T/C [2]: 78.7%
- viability, T/C [3]: 72.7%
- viability, T/C [4]: 79.7%
- viability, T/C (second compound 0.1 µM, first compound 0.00316 µM): 89.8%
- viability, T/C (second compound 0.1 µM, first compound 0.01 µM): 83%
- viability, T/C [5]: 79.7%
- viability, T/C [6]: 75.4%
- viability, T/C [7]: 75.2%
- viability, T/C [8]: 67.3%
- viability, T/C (second compound 0.316 µM, first compound 0.00316 µM): 85.9%
- viability, T/C (second compound 0.316 µM, first compound 0.01 µM): 74.4%
- viability, T/C [9]: 70.7%
- viability, T/C [10]: 63%
- viability, T/C [11]: 63.1%
- viability, T/C [12]: 59.2%
- viability, T/C (second compound 1 µM, first compound 0.00316 µM): 75.8%
- viability, T/C (second compound 1 µM, first compound 0.01 µM): 74.2%
- viability, T/C [13]: 56.7%
- viability, T/C [14]: 54.8%
- viability, T/C [15]: 58.4%
- viability, T/C [16]: 50.9%
- viability, T/C (second compound 3.16 µM, first compound 0.00316 µM): 51.4%
- viability, T/C (second compound 3.16 µM, first compound 0.01 µM): 56.2%
- viability, T/C [17]: 51.4%
- viability, T/C [18]: 46.1%
- viability, T/C [19]: 43.7%
- viability, T/C [20]: 44.2%
- viability, T/C (second compound 10 µM, first compound 0.00316 µM): 37.5%
- viability, T/C (second compound 10 µM, first compound 0.01 µM): 40%
- viability, T/C [21]: 33.9%
- viability, T/C [22]: 33.6%
- viability, T/C [23]: 29.6%
- viability, T/C [24]: 27.9%
